ChEMBL document CHEMBL4699534, “Optimizing PEG-Extended Apelin Analogues as Cardioprotective Drug Leads: Importance of the KFRR Motif and Aromatic Head Group for Improved Physiological Activity” (J Med Chem, 2020)
Non-standard residues stand in square brackets, D forms with d. Residues, ends and D or L forms follow the SMILES beside them. Phe(4-Br) = N[C@@H](Cc1ccc(Br)cc1)C(=O)O; Nle = CCCC[C@H](N)C(=O)O; Aib = CC(C)(N)C(=O)O

Assays:
Mus musculus = assay: Cardioprotective activity in C57BL/6 mouse assessed as reduction in mean arterial blood pressure at 1.4 uM/kg, iv measured after 15 mins relative to control; type: functional; settings: 0.25 h
Apelin receptor [1] = molecular target: T1, Apelin receptor (Rattus norvegicus, UniProt Q9JHG3); assay: Displacement of [125I]-pyr-1-apelin-13 from EGFP-tagged wild-type rat apelin receptor expressed in CHO cell membranes by gamma counting method; set-up: species or system Cell membrane
T1 sequence (Q9JHG3 whole entry): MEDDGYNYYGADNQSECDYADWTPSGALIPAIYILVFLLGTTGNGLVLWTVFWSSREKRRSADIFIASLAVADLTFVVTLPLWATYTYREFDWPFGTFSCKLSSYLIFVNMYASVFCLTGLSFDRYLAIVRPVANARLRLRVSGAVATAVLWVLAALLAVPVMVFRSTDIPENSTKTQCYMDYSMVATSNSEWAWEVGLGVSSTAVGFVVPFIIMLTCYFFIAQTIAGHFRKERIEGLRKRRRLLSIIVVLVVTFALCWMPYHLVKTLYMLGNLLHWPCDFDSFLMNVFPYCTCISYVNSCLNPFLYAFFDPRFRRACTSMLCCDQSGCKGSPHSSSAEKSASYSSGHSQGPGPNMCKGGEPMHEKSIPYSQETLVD

Apelin receptor [2] = molecular target: T2, Apelin receptor (Homo sapiens, UniProt P35414); assay: Activation of APJ receptor (unknown origin) expressed in Chem-5 cells assessed as stimulation of Ca2+ mobilization by Calcium 6-GF dye based fluorescence based assay; type: functional, cell-based
T2 sequence (P35414 whole entry): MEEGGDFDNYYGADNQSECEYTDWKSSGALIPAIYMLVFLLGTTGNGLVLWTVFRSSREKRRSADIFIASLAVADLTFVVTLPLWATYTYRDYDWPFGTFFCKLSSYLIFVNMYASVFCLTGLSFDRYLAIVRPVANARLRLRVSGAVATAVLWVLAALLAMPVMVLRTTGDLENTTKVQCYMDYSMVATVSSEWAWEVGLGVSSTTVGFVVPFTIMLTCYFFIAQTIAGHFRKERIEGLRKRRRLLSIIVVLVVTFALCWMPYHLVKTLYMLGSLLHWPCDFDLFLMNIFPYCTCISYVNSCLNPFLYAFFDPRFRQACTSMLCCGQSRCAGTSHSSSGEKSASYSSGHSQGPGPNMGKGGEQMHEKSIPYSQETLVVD

SMILES | Activity (Mus musculus) [mmHg] | IC50 (Apelin receptor [1]) [nM] | EC50 (Apelin receptor [2]) [nM]
CSCC[C@H](NC(=O)[C@@H]1CCCN1C(=O)CNC(=O)[C@H](CCCCN)NC(=O)[C@H](Cc1c[nH]cn1)NC(=O)[C@H](CO)NC(=O)[C@H](CC(C)C)NC(=O)[C@H](CCCNC(=N)N)NC(=O)[C@@H]1CCCN1C(=O)[C@H](CCCNC(=N)N)NC(=O)[C@H](CCC(N)=O)NC(=O)[C@H](CCCNC(=N)N)NC(=O)[C@H](CCCNC(=N)N)NC(=O)[C@H](C)NC(=O)[C@@H](N)CCCCN)C(=O)N1CCC[C@H]1C(=O)N[C@@H](Cc1ccccc1)C(=O)O | -3 | 1 | 6.17
CSCC[C@H](NC(=O)[C@@H]1CCCN1C(=O)CNC(=O)[C@H](CCCCN)NC(=O)[C@H](Cc1c[nH]cn1)NC(=O)[C@H](CO)NC(=O)[C@H](CC(C)C)NC(=O)[C@H](CCCNC(=N)N)NC(=O)[C@@H]1CCCN1C(=O)[C@H](CCCNC(=N)N)NC(=O)[C@H](CCC(N)=O)NC(=O)[C@H](C)NC(=O)[C@H](CCCNC(=N)N)NC(=O)[C@H](Cc1ccccc1)NC(=O)[C@@H](N)CCCCN)C(=O)N1CCC[C@H]1C(=O)N[C@@H](Cc1ccccc1)C(=O)O | -9 | 2.19 | 74.1
CSCC[C@H](NC(=O)[C@@H]1CCCN1C(=O)CNC(=O)[C@H](CCCCN)NC(=O)[C@H](Cc1c[nH]cn1)NC(=O)[C@H](CO)NC(=O)[C@H](CC(C)C)NC(=O)[C@H](CCCNC(=N)N)NC(=O)[C@@H]1CCCN1C(=O)[C@H](CCCNC(=N)N)NC(=O)[C@H](CCC(N)=O)NC(=O)[C@H](CCCNC(=N)N)NC(=O)[C@H](C)NC(=O)[C@H](Cc1ccccc1)NC(=O)[C@@H](N)CCCCN)C(=O)N1CCC[C@H]1C(=O)N[C@@H](Cc1ccccc1)C(=O)O | 1 | 1.41 | 39.8
CCCC[C@H](NC(=O)[C@@H]1CCCN1C(=O)CNC(=O)[C@H](CCCCN)NC(=O)[C@H](Cc1c[nH]cn1)NC(=O)[C@H](CO)NC(=O)[C@H](CC(C)C)NC(=O)[C@H](CCCNC(=N)N)NC(=O)[C@@H]1CCCN1C(=O)[C@H](CCCNC(=N)N)NC(=O)[C@H](CCC(N)=O)NC(=O)[C@H](CCCNC(=N)N)NC(=O)[C@H](CCCNC(=N)N)NC(=O)[C@H](Cc1ccccc1)NC(=O)[C@H](C)N)C(=O)NC(C)(C)C(=O)N[C@@H](Cc1ccc(Br)cc1)C(=O)O (H-AFRRQRPRLSHKGP[Nle][Aib][Phe(4-Br)]-OH) |  | 0.2 | 
CCCC[C@H](NC(=O)[C@@H]1CCCN1C(=O)CNC(=O)[C@H](CCCCN)NC(=O)[C@H](Cc1c[nH]cn1)NC(=O)[C@H](CO)NC(=O)[C@H](CC(C)C)NC(=O)[C@H](CCCNC(=N)N)NC(=O)[C@@H]1CCCN1C(=O)[C@H](CCCNC(=N)N)NC(=O)[C@H](CCC(N)=O)NC(=O)[C@H](CCCNC(=N)N)NC(=O)[C@H](CCCNC(=N)N)NC(=O)[C@H](C)NC(=O)[C@@H](N)CCCCN)C(=O)NC(C)(C)C(=O)N[C@@H](Cc1ccc(Br)cc1)C(=O)O (H-KARRQRPRLSHKGP[Nle][Aib][Phe(4-Br)]-OH) |  | 0.295 | 
CCCC[C@H](NC(=O)[C@@H]1CCCN1C(=O)CNC(=O)[C@H](CCCCN)NC(=O)[C@H](Cc1c[nH]cn1)NC(=O)[C@H](CO)NC(=O)[C@H](CC(C)C)NC(=O)[C@H](CCCNC(=N)N)NC(=O)[C@@H]1CCCN1C(=O)[C@H](CCCNC(=N)N)NC(=O)[C@H](CCC(N)=O)NC(=O)[C@H](CCCNC(=N)N)NC(=O)[C@H](C)NC(=O)[C@H](Cc1ccccc1)NC(=O)[C@@H](N)CCCCN)C(=O)NC(C)(C)C(=O)N[C@@H](Cc1ccc(Br)cc1)C(=O)O (H-KFARQRPRLSHKGP[Nle][Aib][Phe(4-Br)]-OH) |  | 0.219 | 
CCCC[C@H](NC(=O)[C@@H]1CCCN1C(=O)CNC(=O)[C@H](CCCCN)NC(=O)[C@H](Cc1c[nH]cn1)NC(=O)[C@H](CO)NC(=O)[C@H](CC(C)C)NC(=O)[C@H](CCCNC(=N)N)NC(=O)[C@@H]1CCCN1C(=O)[C@H](CCCNC(=N)N)NC(=O)[C@H](CCC(N)=O)NC(=O)[C@H](C)NC(=O)[C@H](CCCNC(=N)N)NC(=O)[C@H](Cc1ccccc1)NC(=O)[C@@H](N)CCCCN)C(=O)NC(C)(C)C(=O)N[C@@H](Cc1ccc(Br)cc1)C(=O)O (H-KFRAQRPRLSHKGP[Nle][Aib][Phe(4-Br)]-OH) |  | 0.302 | 
